Reference: US20200237909A1, “METHODS OF TREATING OR PREVENTING BREAST CANCER METASTASES USING ANTIBODIES TO JAGGED1 AND CHEMOTHERAPEUTIC AGENTS” (The Trustees of Princeton University, priority 2017, published 2020)

Tested on: SCP28
Assay: Cleaved PARP and cleaved caspase-3 immunoblotting after cisplatin
Format: cell-based, human
Settings: SCP28 single-cultured cells, 72 hours post-treatment
Experimental: FIG. 7. Pro-survival effect of osteoblast Jagged1 on cancer cells can be blocked by 15D11. (A) 3-D tumorsphere culture of MCF7, SCP28, and SUM1315-M1B1 cells, alone or in co-cultured with osteoblast cells, were treated with indicated concentrations of cisplatin or docetaxel. Two days after the chemotherapy, the surviving tumor spheres were counted under the fluorescent microscope. n=3. *p<0.05 by Student's t-test. (B) Cell culture of SCP28 cells alone or in co-culture with MC3T3-E1 pre-osteoblast cells were treated with PBS control or cisplatin. Protein samples were collected at 6 hr, 24 hr, and 72 hr later. Cleaved PARP and cleaved caspase-3 were determined by immunoblotting. # marks full length PARP and * marks cleaved PARP. […] Hind limb bones were fixed and cryo-sectioned for IF staining against CC3 for apoptotic cells and GFP for tumor cells (E), and CC3 positive apoptotic cells among GFP-positive tumor cells were quantified in F. Size bar: 25 μm. n=5. **p<0.01 by Student's t-test. […] Tumor cells in the bone were quantified based on BLI imaging at Day 1 and Day 4. […]
To mimic chemoresistance and tumor seeding effects by osteoblast lineage cells in vitro, an in vitro 3D tumor-stroma co-culture assay (Wang et al., 2015) was adapted. […] Cleaved PARP and cleaved caspase-3 (CC3) status were analyzed by immuno-blotting at different time points after cisplatin treatment. […]

N.N.[Cl][Pt][Cl] [cisplatin]
cleaved PARP and CC3: strong induction
